{"source": "patent US10525139B2", "about": "“Folate-conjugated molecules for delivery of toxic small molecule inhibitors to cancer cells and methods of use” (priority 2014, dated 2020)", "key": {"[1]": {"test_system": "murine NOTCH1 L1601P ΔPEST expressing leukemia lymphoblasts", "assay": "Ex vivo treatment of murine NOTCH1 L1601P ΔPEST leukemia lymphoblasts", "format": "cell-based, mouse", "experimental": "Viability data is represented as percentage relative to vehicle treatment and errors bars denote mean±SD of 3 replicates. Statistical significance of treated vs. vehicle (DMSO) samples (***P≤0.01; ***P≤0.001) was determined by one-way ANOVA with Bonferroni's correction for multiple comparison testing. […] The immunoblot contains cell lysates stained with anti-ICN1 antibody (Val1744) after treatment with the 10 μM of JQ-FT for 24 hours in vitro. GAPDH was used as a loading control ICN1 loss was quantified and bar graph (panel e) corresponds to the results of the quantification of three independent experiments. Statistical significance of treated vs. vehicle (DMSO) samples (*P≤0.05) was determined by Student's t-test. Expression of indicated NOTCH1 target genes HesI (panel d) and Dtx1 (panel e) in murine NOTCH1 L1601P ΔPEST expressing leukemia lymphoblasts treated with 10 μM JQ-FT for 24 hours was determined by qRT-PCR. Error bars indicate the mean±SD of 3 replicates. Data were analyzed using the ΔΔCT method and plotted as a percentage relative to the control gene Gapdh. Statistical significance for treated vs. vehicle (DMSO) (*P≤0.05) was determined by Student's t-test. […] The spleen and the liver of all mice were examined; representative results for one control animal and one JQ-FT-treated animal are shown. Formalin-fixed, paraffin-embedded tissue sections were stained using the hematoxylin and eosin stain (H & E) method. […] Anti-leukemic activity of JQ-FT was assessed by measuring spleen weight upon 5 days of JQ-FT treatment (60 mg/kg I.P) or vehicle (65% D5W+30% PEG-400+5% Tween-80only). […] Statistical significance for treated vs. vehicle (*P≤0.05) was determined by non-parametric t-test (Mann-Whitney). […] Statistical significance for treated vs. vehicle (*P≤0.05) was determined by non-parametric t-test (Mann-Whitney). […] ICN1 loss was quantified and bar graph (j) corresponds to the results of the quantification. Statistical significance for treated vs. vehicle (*P≤0.05) was determined by Student's t-test. […]"}, "NOTCH1": {"test_system": "NOTCH1", "assay": "NOTCH1 processing and activation by western blot (FL-N1, TM-N1, ICN1)", "format": "cell-based, human", "conditions": "24 h", "description": "We previously described that the SERCA inhibitors thapsigargin and cyclopiazonic acid impair NOTCH1 maturation leading to an accumulation of full-length, unprocessed polypeptides in the endoplasmic reticulum/Golgi subcellular compartment. An immediate consequence of SERCA inhibition is a decrement in NOTCH1 protein display on the surface of T-ALL cells. […] To further support the hypothesis that Thap-OH impairs mutant NOTCH1 maturation, we evaluated levels of full-length, transmembrane and activated NOTCH1 (ICN1) by WB. Lysates from T-ALL cell lines treated with 1 μM Thap-OH were immunoblotted with an antibody specific for the cytoplasmic portion of NOTCH1 that recognizes both unprocessed NOTCH1 (FL-N1) (˜270 kDa) and the furin-processed transmembrane subunit (TM-N1) (˜110 kDa).\nBoth Folate-Thap (JQ-FT) and Thap-OH were tested in T-ALL cell lines with 24 h treatment. […] Lysates were prepared after treatment with indicated doses of thapsigargin, JQ-FT or Thap-OH for 24 hr. The blot shown was stained with an antibody against the C-terminus of NOTCH1 that recognizes both the furin-processed NOTCH1 transmembrane subunit (TM) and the unprocessed NOTCH1 precursor (FL) (FIG. 2A). GAPDH was used as a loading control. Western blots were stained with antibodies specific for γ-secretase-cleaved NOTCH 1 ([…], Cell Signaling, Beverly, Mass., USA), or the C-terminus of NOTCH1 (SC-6014 (C-20) Santa Cruz Biotechnology, Santa Cruz, Calif., USA). Control stains were carried out with antibodies specific for GAPDH (137179, Santa Cruz Biotechnology). Blots were developed with anti-rabbit-HRP (NA9340V, Amersham, Pittsburgh, Pa., USA) or anti-mouse-HRP (NA9340V or NA9310V, Amersham). Staining was quantified using ImageQuant TI V 7.0 (GE Health Care, Piscataway, N.J., USA)."}, "[2]": {"assay": "Maximal tolerated dose in mice", "format": "in vivo", "experimental": "Though the JQ-FT conjugate has not, as yet, been optimized for pharmacologic properties, we are eager to explore the utility of the compound as an in vivo chemical probe, while assessing putative tolerability of folate-conjugated thapsigargins. We first established the maximal tolerated dose (MTD) of JQ-FT as 60 mg/kg/day in mice, as administered by daily intraperitoneal injection. […] We therefore initiated treatment studies of JQ-FT (60 mg/kg IP daily) in mice with established T-ALL."}}, "note": "“Also recorded” adds a separate entry of the source."}
{"smiles": "C/C=C(/C)C(=O)O[C@H]1C(C)=C2C([C@@H]1OC(=O)CCCCCCC)[C@@](C)(OC(C)=O)C[C@H](OC(=O)CC[C@H](NC(=O)c1ccc(NCc3cnc4nc(N)[nH]c(=O)c4n3)cc1)C(=O)O)[C@@]1(O)[C@H]2OC(=O)[C@@]1(C)O", "note": "(some centres unmarked) [JQ-FT]", "values": [{"measurement": "ICN1 expression in murine leukemia cells", "setting": "[1]; 10 μM JQ-FT, 24 hours", "value": "diminished"}, {"measurement": "transcription of NOTCH1 targets Hes1 and Dtx1", "setting": "[1]; 10 μM JQ-FT, 24 hours", "value": "diminished"}, {"measurement": "proliferation of murine leukemia cells", "setting": "[1]; ex vivo treatment with JQ-FT", "value": "diminished the proliferation"}, {"measurement": "furin-processed transmembrane NOTCH1 subunit (TM-N1) level", "setting": "NOTCH1; T-ALL cell lines with HD mutations, Thap-OH at 1 μM", "value": "loss of trans-membrane NOTCH; also recorded: decrement of transmembrane NOTCH1"}, {"measurement": "ICN1 level", "setting": "NOTCH1; T-ALL cell lines", "value": "Loss of ICN1"}, {"measurement": "unprocessed full-length NOTCH1 (FL-N1) level", "setting": "NOTCH1; T-ALL cell lines", "value": "accumulation of full length NOTCH; also recorded: accumulation of full length NOTCH1"}, {"measurement": "MTD relative to MTD of unconjugated thapsigargin", "setting": "[2]", "value": 150, "unit": "fold"}, {"measurement": "MTD", "setting": "[2]; mouse, in vivo, ip, daily intraperitoneal injection", "value": 60, "unit": "mg/kg/day"}]}
